Consider 19 molecules from ChEMBL document CHEMBL5370562, “Synthesis and evaluation of Fmoc-amino esters and amides bearing a substrate like quaternary ammonium group as selective butyrylcholinesterase inhibitors” (Bioorg Med Chem Lett, 2023).

Data set [1] deals with T1, Cholinesterase (Equus caballus, UniProt P81908). In words: Inhibition of equine serum BuChE using S-butyrylthiocholine iodide as substrate and measured for 60 secs by Ellman's method. The format is cell-free. A general note: Ellman's reagent forms a yellow product with free thiols.
For data set [2], the target named is BuChE (butyrylcholinesterase) (Equus caballus, UniProt P81908). Put plainly: (§1) Substrate activity at equine serum BuChE assessed as compound hydrolysis at 10XIC50 measured after 1 hr by HPLC analysis. Particulars: horse, equine serum butyrylcholinesterase (BuChE), read-out: Drug metabolism. Type of data set: ADME, cell-free.
A short description of data set [3]: Drug metabolism in sodium phosphate buffer assessed as compound hydrolysis at 10XIC50 measured after 24 hrs by HPLC analysis. The format is ADME. As to conditions: read-out: Drug metabolism.
Data set [4] addresses T2, Trypsin (Homo sapiens) (UniProt P07477+P07478+P35030). Put plainly: Inhibition of trypsin (unknown origin) assessed as residual enzyme activity at 10 uM using 4-nitrophenyl acetate as substrate and measured for 1 min by spectrophotometric analysis relative to control. Type of data set: protein assay.
Data set [5] deals with Acetylcholinesterase (Electrophorus electricus) (UniProt O42275). Put plainly: Inhibition of electric eel AChE assessed as residual enzyme activity at 20 uM using acetylthiocholine iodide as substrate and measured for 1 min by spectrophotometrc analysis relative to control.
Data set [6] addresses Cholinesterase (Equus caballus) (UniProt P81908). In words: Inhibition of equine serum BuChE assessed as residual enzyme activity at 20 uM using S-butyrylthiocholine iodide as substrate and measured for 60 secs by spectrophotometric analysis relative to control. Type of data set: cell-free. As to conditions: time 60.0 sec.
Data set [7] deals with T2, Trypsin (Homo sapiens). Put plainly: Inhibition of trypsin (unknown origin) assessed as residual enzyme activity at 20 uM using 4-nitrophenyl acetate as substrate and measured for 1 min by spectrophotometric analysis relative to control. Type of data set: protein assay.
Data set [8] concerns the target Acetylcholinesterase (Electrophorus electricus) (UniProt O42275). Put plainly: Inhibition of electric eel AChE assessed as residual enzyme activity at 10 uM using acetylthiocholine iodide as substrate and measured for 1 min by spectrophotometrc analysis relative to control.
The target is the same in data set [9]. In words: Inhibition of electric eel AChE assessed as residual enzyme activity at 50 uM using acetylthiocholine iodide as substrate and measured for 1 min by spectrophotometrc analysis relative to control.
The target of data set [10] is T2, Trypsin (Homo sapiens). In words: Inhibition of trypsin (unknown origin) at 50 uM using 4-nitrophenyl acetate as substrate and measured for 1 min by spectrophotometric analysis relative to control. The format is protein assay.
Data set [11] addresses T2, Trypsin (Homo sapiens). Put plainly: Inhibition of trypsin (unknown origin) assessed as residual enzyme activity at 50 uM using 4-nitrophenyl acetate as substrate and measured for 1 min by spectrophotometric analysis relative to control. Type of data set: protein assay.
Data set [12] has as its target Acetylcholinesterase (Electrophorus electricus) (UniProt O42275). Put plainly: Inhibition of electric eel AChE at 100XIC50 for BuChE using acetylthiocholine iodide as substrate and measured for 1 min by spectrophotometrc analysis.
The target of data set [13] is Cholinesterase (Equus caballus) (UniProt P81908). In words: Reversible inhibition of equine serum BuChE assessed as residual enzyme activity at IC50 using S-butyrylthiocholine iodide as substrate preincubated with enzyme for 60 mins followed by 80-fold dilution with BTC and DTNB and measured for 1 min by spectrophotometric analysis relative to control. The format is cell-free. As to conditions: time 61.0 min.

Data set [14] addresses T1, Cholinesterase. The description is as §1. Type of data set: ADME, cell-free. Particulars: horse, serum, 1 h.
Data set [15] concerns the target Cholinesterase (Equus caballus) (UniProt P81908). In words: Inhibition of equine serum BuChE assessed as residual enzyme activity at 50 uM using S-butyrylthiocholine iodide as substrate and measured for 60 secs by spectrophotometric analysis relative to control. The format is cell-free. Particulars: time 60.0 sec.
Data set [16] addresses Acetylcholinesterase (Electrophorus electricus) (UniProt O42275). Put plainly: Inhibition of electric eel AChE at 50 uM using acetylthiocholine iodide as substrate and measured for 1 min by spectrophotometrc analysis relative to control.
Data set [17] deals with Cholinesterase (Equus caballus) (UniProt P81908). In words: Inhibition of equine serum BuChE assessed as residual enzyme activity at 10 uM using S-butyrylthiocholine iodide as substrate and measured for 60 secs by spectrophotometric analysis relative to control. The format is cell-free. As to conditions: time 60.0 sec.
Data set [18] has as its target Acetylcholinesterase (Electrophorus electricus) (UniProt O42275). In words: Inhibition of electric eel AChE at 25XIC50 for BuChE using acetylthiocholine iodide as substrate and measured for 1 min by spectrophotometrc analysis relative to control.
In data set [19] the target is Cholinesterase (Equus caballus) (UniProt P81908). Put plainly: Irreversible inhibition of equine serum BuChE assessed as residual enzyme activity at IC50 using S-butyrylthiocholine iodide as substrate preincubated with enzyme for 60 mins followed by 80-fold dilution with BTC and DTNB and measured for 1 min by spectrophotometric analysis relative to control. The format is cell-free. As to conditions: time 61.0 min.

The structures appear in SMILES notation. Calls of active or inactive are those of the source. The calls are words filed in the database; no cut-off is given here. A value given as a limit tells only on which side of the number the result lay.

Acetylcholinesterase (Electrophorus electricus), sequence (O42275 24-633 limits assumed): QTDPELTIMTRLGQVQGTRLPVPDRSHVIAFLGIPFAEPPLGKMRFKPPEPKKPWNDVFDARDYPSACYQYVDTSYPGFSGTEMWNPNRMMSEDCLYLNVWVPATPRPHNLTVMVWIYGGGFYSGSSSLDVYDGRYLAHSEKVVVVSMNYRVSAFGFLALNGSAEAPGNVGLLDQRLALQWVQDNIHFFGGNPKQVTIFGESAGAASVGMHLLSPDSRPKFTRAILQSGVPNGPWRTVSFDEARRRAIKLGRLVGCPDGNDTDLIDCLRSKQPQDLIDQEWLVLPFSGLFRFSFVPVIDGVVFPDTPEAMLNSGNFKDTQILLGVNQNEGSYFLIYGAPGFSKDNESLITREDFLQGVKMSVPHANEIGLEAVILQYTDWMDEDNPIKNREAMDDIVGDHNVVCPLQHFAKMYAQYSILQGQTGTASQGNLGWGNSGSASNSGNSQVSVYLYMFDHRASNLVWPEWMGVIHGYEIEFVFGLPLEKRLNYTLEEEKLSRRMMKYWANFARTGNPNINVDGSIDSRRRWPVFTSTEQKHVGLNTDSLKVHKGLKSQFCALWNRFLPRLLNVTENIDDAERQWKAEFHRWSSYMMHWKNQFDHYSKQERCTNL
T1 sequence (P81908 whole entry): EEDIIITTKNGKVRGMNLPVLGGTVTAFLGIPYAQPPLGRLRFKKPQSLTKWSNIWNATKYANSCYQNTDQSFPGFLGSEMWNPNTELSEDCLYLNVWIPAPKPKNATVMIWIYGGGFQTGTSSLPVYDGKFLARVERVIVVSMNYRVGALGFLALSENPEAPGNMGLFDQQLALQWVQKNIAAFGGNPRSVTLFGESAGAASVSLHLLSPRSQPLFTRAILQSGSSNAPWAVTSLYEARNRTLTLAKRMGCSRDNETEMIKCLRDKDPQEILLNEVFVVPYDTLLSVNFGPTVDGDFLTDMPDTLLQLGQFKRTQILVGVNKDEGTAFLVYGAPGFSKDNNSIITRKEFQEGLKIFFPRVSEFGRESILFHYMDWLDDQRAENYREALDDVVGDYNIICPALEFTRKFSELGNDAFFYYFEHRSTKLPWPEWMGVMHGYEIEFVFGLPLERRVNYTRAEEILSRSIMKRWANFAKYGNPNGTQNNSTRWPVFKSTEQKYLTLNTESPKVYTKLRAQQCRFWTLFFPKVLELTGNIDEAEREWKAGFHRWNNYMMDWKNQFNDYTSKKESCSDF
Cholinesterase (Equus caballus), sequence (P81908 whole entry): as above
BuChE (butyrylcholinesterase), sequence (P81908 whole entry): as above

For the molecule `CC(C)(C)OC(=O)n1cc(C[C@H](NC(=O)OCC2c3ccccc3-c3ccccc32)C(=O)OCC[N+](C)(C)C)c2ccccc21`, the concentration for half-maximal inhibition (IC50) on Cholinesterase [1] amounted to 0.4 µM. In addition, in data set [2], the metabolised at 1 h is around 25%. For the same molecule, the degraded at 24 h in data set [3] is around 20%.

At Cholinesterase [1], `CC(C)(C)OC(=O)n1cc(C[C@H](NC(=O)OCC2c3ccccc3-c3ccccc32)C(=O)O)c2ccccc21` had an IC50 of 23 µM.

Take `C[N+](C)(C)CCOC(=O)[C@H](Cc1ccccc1)NC(=O)OCC1c2ccccc2-c2ccccc21`: the IC50 against Cholinesterase [1] was 1 µM. Also, the metabolised at 1 h in data set [2] is around 100%. For the same molecule, the degraded at 24 h in [3] is around 20%.

In the case of `O=C(O)CNC(=O)OCC1c2ccccc2-c2ccccc21`, the IC50 at Cholinesterase [1] is at least 200 µM.

With `C[C@H](NC(=O)OCC1c2ccccc2-c2ccccc21)C(=O)OCC[N+](C)(C)C`, the IC50 at Cholinesterase [1] is 5.1 µM. Besides, the metabolised at 1 h in data set [2] was around 25%. For the same molecule, the degraded at 24 h in data set [3] was around 20%.

In turn, `C[N+](C)(C)CCOC(=O)CNC(=O)OCC1c2ccccc2-c2ccccc21` registered an IC50 against Cholinesterase [1] of 6.7 µM. For the same molecule, the metabolised at 1 h in data set [2] was around 100%. In [3], the degraded at 24 h was around 20%.

On to `CC(C)(C)OC(=O)NCCCC[C@H](NC(=O)OCC1c2ccccc2-c2ccccc21)C(=O)NCC[N+](C)(C)C.[I-]`, for which the Ratio at Trypsin (Homo sapiens) [4] was determined as 1; in data set [5], 1; in data set [6] it was 0.03; on Trypsin (Homo sapiens) [7], 0.95; in data set [8] it was 1.01; in data set [9] it was 0.81. Also, the Ratio came out at 0.97 at Trypsin (Homo sapiens) [11], 1.04 in data set [13], 0.01 in data set [15] and 0.06 in [17]. Moreover, on Cholinesterase [1], the midpoint of inhibition, the IC50, lay at 0.14 µM. Also, the values for the inhibition (at Trypsin (Homo sapiens) [10]; in data set [16]) were below 5% and 20%, respectively. Besides, the inhibition result in [12] was “Active”. In addition, the Drug metabolism result at Cholinesterase [14] was “Metabolite_Notdetected”.

As for `C[C@H](NC(=O)OCC1c2ccccc2-c2ccccc21)C(=O)O`, the IC50 at Cholinesterase [1] was at least 200 µM.

At Cholinesterase [1], `CC(C)(C)OC(=O)NCCCC[C@H](NC(=O)OCC1c2ccccc2-c2ccccc21)C(=O)O` displayed an IC50 of 41 µM.

As to `CC(C)(C)OC(=O)n1cc(C[C@H](NC(=O)OCC2c3ccccc3-c3ccccc32)C(=O)NCC[N+](C)(C)C)c2ccccc21.[I-]`, the inhibition in [18] was 10%; on Trypsin (Homo sapiens) [10], below 5%; in data set [16], 30%. Also, the Ratio came out at 1 at Trypsin (Homo sapiens) [4]; 0.87 in data set [5]; 0.02 in [6]; 0.93 at Trypsin (Homo sapiens) [7]; 0.96 in data set [8]; 0.68 in data set [9]. Further, the Ratio at Trypsin (Homo sapiens) [11] is 0.94; in data set [13], 0.99; in data set [15], below 0.01; in data set [17], 0.04. This molecule had a half-inhibitory concentration (IC50) at Cholinesterase [1] of 0.17 µM. Besides, the inhibition result in data set [12] was “Active”. Further, the Drug metabolism result at Cholinesterase [14] is recorded as “Metabolite_Notdetected”.

For `CC(C)C[C@H](NC(=O)OCC1c2ccccc2-c2ccccc21)C(=O)OCC[N+](C)(C)C`, on Cholinesterase [1], half-maximal inhibition (IC50) required 0.7 µM. Besides, in [2], the metabolised at 1 h was around 50%. Also, the degraded at 24 h in data set [3] is around 20%.

As for `C[N+](C)(C)CCNC(=O)CNC(=O)OCC1c2ccccc2-c2ccccc21.[I-]`, the Ratio was 0.96 on Trypsin (Homo sapiens) [4]; 0.95 in [5]; 0.21 in data set [6]; 0.96 on Trypsin (Homo sapiens) [7]; 0.99 in [8]; 0.84 in data set [9]. Further, the Ratio amounted to 1.06 on Trypsin (Homo sapiens) [11], 1 in [13], 0.07 in data set [15] and 0.36 in data set [17]. On Cholinesterase [1], the IC50 was determined as 3.7 µM. Besides, the inhibition on Trypsin (Homo sapiens) [10] is below 5%; in data set [16] it was 10%. In addition, in data set [12], the inhibition entry was “Active”. The Drug metabolism entry at Cholinesterase [14] is on record as “Metabolite_Notdetected”.

On to `CC(C)C[C@H](NC(=O)OCC1c2ccccc2-c2ccccc21)C(=O)NCC[N+](C)(C)C.[I-]`, for which the Ratio on Trypsin (Homo sapiens) [4] came out at 1.05; in [5] it was 1.01; in data set [6], 0.11; at Trypsin (Homo sapiens) [7] it was 0.99; in data set [8], 1; in data set [9], 0.92. Also, the Ratio turned out to be 0.99 at Trypsin (Homo sapiens) [11], 1.01 in data set [13], 0.03 in [15] and 0.21 in [17]. For the same molecule, at Cholinesterase [1], the 50% inhibitory concentration (IC50) was determined as 1.8 µM. In addition, the inhibition against Trypsin (Homo sapiens) [10] is below 5%. In addition, in [12], the inhibition result was “Active”. Besides, the Drug metabolism entry at Cholinesterase [14] is given as “Metabolite_Notdetected”.

`CC(C)(C)OC(=O)NCCCC[C@H](NC(=O)OCC1c2ccccc2-c2ccccc21)C(=O)OCC[N+](C)(C)C`: on Cholinesterase [1], the IC50 worked out at 0.5 µM. The metabolised at 1 h in data set [2] is around 25%. In addition, the degraded at 24 h in data set [3] was around 20%.

The molecule `O=C(N[C@@H](Cc1ccccc1)C(=O)O)OCC1c2ccccc2-c2ccccc21` yielded an IC50 on Cholinesterase [1] of 320 µM.

Regarding `C[N+](C)(C)CCNC(=O)[C@H](Cc1ccccc1)NC(=O)OCC1c2ccccc2-c2ccccc21.[I-]`, the Ratio stood at 1.01 on Trypsin (Homo sapiens) [4]; 0.99 in data set [5]; 0.03 in data set [6]; 1.01 at Trypsin (Homo sapiens) [7]; 0.97 in data set [8]; 0.89 in data set [9]. Also, the Ratio came out at 0.95 at Trypsin (Homo sapiens) [11], 1.01 in data set [13], 0.02 in [15] and 0.07 in [17]. For the same molecule, half-maximal inhibition against Cholinesterase [1] (IC50) was put at 0.6 µM. Further, the inhibition on Trypsin (Homo sapiens) [10] is below 5%; in data set [16], 10%. In addition, the inhibition entry in [12] is “Active”. In addition, at Cholinesterase [14], the Drug metabolism result is on record as “Metabolite_Notdetected”.

For the molecule `O=S(=O)(F)Cc1ccccc1`, the Ratio on Trypsin (Homo sapiens) [4] is below 0.01; in [19], 0.01; in data set [8] it was below 0.01; in data set [17], below 0.01.

Regarding `CC(C)C[C@H](NC(=O)OCC1c2ccccc2-c2ccccc21)C(=O)O`, the IC50 against Cholinesterase [1] is 134 µM.

`C[C@H](NC(=O)OCC1c2ccccc2-c2ccccc21)C(=O)NCC[N+](C)(C)C.[I-]`: the Ratio was 1.01 at Trypsin (Homo sapiens) [4]; 0.97 in data set [5]; 0.31 in data set [6]; 1.04 on Trypsin (Homo sapiens) [7]; 1 in data set [8]; 0.94 in data set [9]. Moreover, the Ratio at Trypsin (Homo sapiens) [11] amounted to 0.98; in data set [13], 1.02; in data set [15] it was 0.13; in data set [17] it was 0.44. The molecule also came in with an IC50 at Cholinesterase [1] of 7.5 µM. The inhibition on Trypsin (Homo sapiens) [10] is below 5%. Further, in data set [12], the inhibition result was “Active”. Also, the Drug metabolism entry at Cholinesterase [14] is “Metabolite_Notdetected”.

As a reminder, the IC50 is the concentration that gives 50% inhibition. High values mean lower potency, low ones higher potency. The term inhibition denotes the drop in the measured response relative to a control, in per cent.
